We go through 8 compounds from patent US9999619B2, “Piperidin-4-yl azetidine derivatives as JAK1 inhibitors” (Incyte Corporation, priority 2010, dated 2018).

Each structure is given as a SMILES string.

Common to all, as to assay type: biochemical
The target in experiment [1] is human JAK1 (a.a. 837-1142). Kind of experiment: In vitro JAK kinase assay (HTRF, phosphorylation of a biotinylated peptide), JAK1. The conditions noted are these: ratio of JAK2 IC50 to JAK1 IC50, measured at 1 mM ATP. The protocol:
(§1) Compounds herein were tested for inhibitory activity of JAK targets according to the following in vitro assay described in Park et al., Analytical Biochemistry 1999, 269, 94-104. The catalytic domains of human JAK1 (a.a. 837-1142), Jak2 (a.a. 828-1132) and Jak3 (a.a. 781-1124) with an N-terminal His tag were expressed using baculovirus in insect cells and purified. The catalytic activity of JAK1, JAK2 or JAK3 was assayed by measuring the phosphorylation of a biotinylated peptide. The phosphorylated peptide was detected by homogenous time resolved fluorescence (HTRF). […] Reactions were carried out at room temperature for 1 hr and then stopped with 20 μL 45 mM EDTA, 300 nM SA-APC, 6 nM Eu-Py20 in assay buffer (Perkin Elmer, Boston, Mass.). Binding to the Europium labeled antibody took place for 40 minutes and HTRF signal was measured on a Fusion plate reader (Perkin Elmer, Boston, Mass.).

In experiment [2] the target is human JAK1 (a.a. 837-1142) (Homo sapiens, UniProt P23458). Described as above. The conditions noted are these: measured at 1 mM ATP. Here is the method:
as §1

Another experiment has as its target Jak2 (a.a. 828-1132) (Homo sapiens (Human), UniProt O60674). The experiment is described as follows: In vitro JAK kinase assay (HTRF, phosphorylation of a biotinylated peptide), JAK2. The conditions noted are these: measured at 1 mM ATP. The procedure, abridged:
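N-terminal His-tagged catalytic domains, baculovirus-expressed in insect cells, phosphorylated a biotinylated peptide for 1 hr at room temperature. EDTA stop was followed by SA-APC and Eu-Py20 antibody for 40 minutes, with phosphopeptide read by HTRF.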

Jak2 (a.a. 828-1132), sequence (O60674 828-1132): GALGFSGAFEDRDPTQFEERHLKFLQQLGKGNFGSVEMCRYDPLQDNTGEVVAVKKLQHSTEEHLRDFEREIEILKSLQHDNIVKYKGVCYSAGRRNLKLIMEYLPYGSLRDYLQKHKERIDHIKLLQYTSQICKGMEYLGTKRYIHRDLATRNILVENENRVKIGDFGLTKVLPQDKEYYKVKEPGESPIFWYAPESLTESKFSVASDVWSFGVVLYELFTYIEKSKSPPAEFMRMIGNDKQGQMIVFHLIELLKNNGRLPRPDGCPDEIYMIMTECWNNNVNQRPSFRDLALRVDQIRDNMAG

As usually defined, the IC50 is the concentration needed to halve the response being measured. Read a low IC50 as inhibition by little substance. As for `N#CCC1(n2cc(-c3ncnc4[nH]ccc34)cn2)CN(C2CCN(C(=O)Nc3nc(-c4ccc(Cl)cc4)cs3)CC2)C1` [Example 195, N-[4-(4-chlorophenyl)-1,3-thiazol-2-yl]-4-{3-(cyanomethyl)-3-[4-(7H-pyrrolo[2,3-d]pyrimidin-4-yl)-1H-pyrazol-1-yl]azetidin-1-yl}piperidine-1-carboxamide], the “IC50 Ratio JAK2/JAK1” value in experiment [1] is 3.2. Also, the IC50 in experiment [2] fell in the range of 0.02 to 0.03 µM; against Jak2 (a.a. 828-1132) it was 0.05 to 0.1 µM.

Take `N#CCC1(n2cc(-c3ncnc4[nH]ccc34)cn2)CN(C2CCN(C(=O)c3ccc(-c4cccc5ncccc45)c(F)c3)CC2)C1` [Example 129, {1-[1-(3-fluoro-4-quinolin-5-ylbenzoyl)piperidin-4-yl]-3-[4-(7H-pyrrolo[2,3-d]pyrimidin-4-yl)-1H-pyrazol-1-yl]azetidin-3-yl}acetonitrile]: in experiment [1], the “IC50 Ratio JAK2/JAK1” value is reported as 7.9. The concentration for half-maximal inhibition (IC50) in experiment [2] was no more than 0.005 µM; on Jak2 (a.a. 828-1132) it was no more than 0.01 µM.

As for `N#CCC1(n2cc(-c3ncnc4[nH]ccc34)cn2)CN(C2CCN(Cc3cc(C(F)(F)F)ccc3Cl)CC2)C1` [Example 211, {1-{1-[2-chloro-5-(trifluoromethyl)benzyl]piperidin-4-yl}-3-[4-(7H-pyrrolo[2,3-d]pyrimidin-4-yl)-1H-pyrazol-1-yl]azetidin-3-yl}acetonitrile], in experiment [1], the “IC50 Ratio JAK2/JAK1” value is 5.0. In addition, the IC50 in experiment [2] lay within 0.005 to 0.02 µM; on Jak2 (a.a. 828-1132), 0.01 to 0.05 µM.

Consider `N#CCC1(n2cc(-c3c(F)cnc4[nH]ccc34)cn2)CN(C2CCN(C(=O)c3cc(C(F)(F)F)ncc3Cl)CC2)C1` [Example 326, {1-{1-[5-chloro-2-(trifluoromethyl)isonicotinoyl]piperidin-4-yl}-3-[4-(5-fluoro-1H-pyrrolo[2,3-b]pyridin-4-yl)-1H-pyrazol-1-yl]azetidin-3-yl}acetonitrile], for which the “IC50 Ratio JAK2/JAK1” value in experiment [1] is recorded as 1.7. Also, the values for the IC50 (in experiment [2]; against Jak2 (a.a. 828-1132)) were 0.005 to 0.02 µM and 0.01 to 0.05 µM, respectively.

On to `N#CCC1(n2cc(-c3ncnc4[nH]ccc34)cn2)CN(C2CCN(Cc3ccc4c(c3)OCCO4)CC2)C1` [Example 234, {1-[1-(2,3-dihydro-1,4-benzodioxin-6-ylmethyl)piperidin-4-yl]-3-[4-(7H-pyrrolo[2,3-d]pyrimidin-4-yl)-1H-pyrazol-1-yl]azetidin-3-yl}acetonitrile], for which the “IC50 Ratio JAK2/JAK1” value in experiment [1] is listed as 4.2. The IC50 is no more than 0.005 µM in experiment [2] and 0.01 to 0.05 µM against Jak2 (a.a. 828-1132).

As for `COc1ccc(F)cc1C(=O)N1CCC(N2CC(CC#N)(n3cc(-c4ncnc5[nH]ccc45)cn3)C2)CC1` [Example 38, {1-[1-(5-fluoro-2-methoxybenzoyl)piperidin-4-yl]-3-[4-(7H-pyrrolo[2,3-d]pyrimidin-4-yl)-1H-pyrazol-1-yl]azetidin-3-yl}acetonitrile], the “IC50 Ratio JAK2/JAK1” value in experiment [1] is 5.7. Besides, the IC50 in experiment [2] is no more than 0.005 µM; against Jak2 (a.a. 828-1132) it was no more than 0.01 µM.

Take `N#CCC1(n2cc(-c3ncnc4[nH]ccc34)cn2)CN(C2CCN(Cc3cc(Cl)cc(Cl)c3)CC2)C1` [Example 210, {1-[1-(3,5-dichlorobenzyl)piperidin-4-yl]-3-[4-(7H-pyrrolo[2,3-d]pyrimidin-4-yl)-1H-pyrazol-1-yl]azetidin-3-yl}acetonitrile]: in experiment [1], the “IC50 Ratio JAK2/JAK1” value was determined as 4.3. Also, the results for the IC50 (in experiment [2]; on Jak2 (a.a. 828-1132)) were no more than 0.005 µM and no more than 0.01 µM, respectively.

With `N#CCC1(n2cc(-c3ncnc4[nH]ccc34)cn2)CN(C2CCN(C(=O)c3ccc(F)c(F)c3)CC2)C1` [Example 35, {1-[1-(3,4-difluorobenzoyl)piperidin-4-yl]-3-[4-(7H-pyrrolo[2,3-d]pyrimidin-4-yl)-1H-pyrazol-1-yl]azetidin-3-yl}acetonitrile], the “IC50 Ratio JAK2/JAK1” value in experiment [1] turned out to be 6.9. Also, the IC50 in experiment [2] is no more than 0.005 µM; at Jak2 (a.a. 828-1132), 0.01 to 0.05 µM.
